Patent US20250296938A1, “Compounds that Interact with the Ras Superfamily for the Treatment of Cancers, Inflammatory Diseases, Rasopathies, and Fibrotic Disease” (SHY Therapeutics, LLC, priority 2018, published 2025)
Like-named read-outs stand apart in the source and are kept apart here.

Experiments:
Assay in all cases: Ras GTP binding domain inhibition assay (Cy3-GTP/Cy5-GTP competition)
KRas G12C mutant = test system: KRas G12C mutant; set-up: species or system human; conditions: 20 μM; for KRas G12C mutant + SOS: % inh.: with SOS; for KRas G12C mutant: % inh.: without SOS
Outline: (§1)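 Compounds tested at 20 μM or in serial dilution for IC50 against nickel-captured His-tagged GTPase, 3 hours at room temperature, with or without His-Sos GEF added for last hour. Fluorescent GTP then added at 100 nM for 45 minutes; wells washed, bound label measured by fluorescence.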

KRas Q61H mutant = test system: KRas Q61H mutant; set-up: species or system human; conditions: 20 μM; for KRas Q61H mutant + SOS: % inh.: with SOS; for KRas Q61H mutant: % inh.: without SOS
Outline: as §1

KRas wild type = test system: KRas wild type; set-up: species or system human; conditions: 20 μM; for KRas wild type + SOS: % inh.: with SOS; for KRas wild type: % inh.: without SOS
Outline: as §1

KRas G12D mutant = molecular target: T1, KRas G12D mutant (Homo sapiens, UniProt P01116, G12D); conditions: 20 μM
T1 construct: fused on or other part: His tag, used for capture on nickel-coated plates
Outline: as §1

[1] = with SOS, read-out: KRas G-12D mutant + SOS: % inh.
[2] = without SOS, read-out: KRas G12D mutant: % inh.

| KRas G12C mutant + SOS: % inh. (KRas G12C mutant) | KRas G12C mutant: % inh. (KRas G12C mutant) | KRas Q61H mutant + SOS: % inh. (KRas Q61H mutant) | KRas Q61H mutant: % inh. (KRas Q61H mutant) | KRas wild type + SOS: % inh. (KRas wild type) | KRas wild type: % inh. (KRas wild type) | inhibition at 20 µM (KRas G12D mutant; [1]) [%] | inhibition at 20 µM (KRas G12D mutant; [2]) [%] | SMILES |
| --- | --- | --- | --- | --- | --- | --- | --- | --- |
| B (26-50% inhibition) | B (26-50% inhibition) | B (26-50% inhibition) | B (26-50% inhibition) | A (1-25% inhibition) | C (51-75% inhibition) | 1 to 25 | 26 to 50 | Oc1nc(-c2cn3ccccc3n2)nc2c(-c3ccccn3)csc12 [drawing 816] |
| C (51-75% inhibition) | B (26-50% inhibition) | C (51-75% inhibition) | D (76-100% inhibition) | B (26-50% inhibition) | D (76-100% inhibition) | 51 to 75 | 51 to 75 | O=C(NCc1ccccc1)c1nc(-c2ccccn2)nc(O)c1O [drawing 821] |
| D (76-100% inhibition) | B (26-50% inhibition) | C (51-75% inhibition) | B (26-50% inhibition) | D (76-100% inhibition) | C (51-75% inhibition) | 51 to 75 | 26 to 50 | COC1CCN(c2nc(-c3nccn3C)nc3sc(Br)c(-c4ccccc4)c23)C1 (stereo not drawn) [drawing 822] |
| B (26-50% inhibition) | C (51-75% inhibition) | C (51-75% inhibition) | C (51-75% inhibition) | B (26-50% inhibition) | C (51-75% inhibition) | 26 to 50 | 51 to 75 | Cn1ccnc1-c1nc(O)c(O)c(C(=O)NC2CCC2)n1 [drawing 825] |
| A (1-25% inhibition) | B (26-50% inhibition) | B (26-50% inhibition) | B (26-50% inhibition) | A (1-25% inhibition) | C (51-75% inhibition) | 1 to 25 | 26 to 50 | Cn1ccnc1-c1nc(O)c(O)c(C(=O)N2CCCCC2)n1 [drawing 826] |
| B (26-50% inhibition) | C (51-75% inhibition) | C (51-75% inhibition) | C (51-75% inhibition) | B (26-50% inhibition) | C (51-75% inhibition) | 26 to 50 | 51 to 75 | Cn1ccnc1-c1nc(O)c(O)c(C(=O)NC2CCCC2)n1 [drawing 827] |
| A (1-25% inhibition) | B (26-50% inhibition) | B (26-50% inhibition) | C (51-75% inhibition) | A (1-25% inhibition) | B (26-50% inhibition) | 1 to 25 | 26 to 50 | Cn1ccnc1-c1nc(O)c(O)c(C(=O)N2CCCC2)n1 [drawing 828] |
| A (1-25% inhibition) | A (1-25% inhibition) | B (26-50% inhibition) | B (26-50% inhibition) | A (1-25% inhibition) | B (26-50% inhibition) | 1 to 25 | 51 to 75 | CCN(CC)C(=O)c1nc(-c2nccn2C)nc(O)c1O [drawing 829] |
| B (26-50% inhibition) | C (51-75% inhibition) | C (51-75% inhibition) | C (51-75% inhibition) | B (26-50% inhibition) | C (51-75% inhibition) | 26 to 50 | 51 to 75 | CC(C)NC(=O)c1nc(-c2nccn2C)nc(O)c1O [drawing 830] |
